Results on one molecule are retold here after US20250332131A1, “COMPOSITION FOR ACTIVATING NICOTINAMIDE PHOSPHORIBOSYLTRANSFERASE” (Yuki Gosei Kogyo Co., Ltd., priority 2024, published 2025).

Structures are written as SMILES.

The experiment relates to miRNA contained in exosomes secreted from C2C12 cells. Conditions: ratio of 1.5 or more compared to the control and signal value exceeding 100; Table 1, FIG. 5. The procedure:
In this example, miRNA in exosomes was analyzed by microarray.
The exosome solution purified in Example 2 was used for microarray analysis. The microarray experiment was outsourced to Kamakura Techno Science (Kanagawa, Japan). Based on the data obtained, samples with a ratio of 1.5 or more compared to the control and with either of the two samples with a signal value exceeding 100 were extracted as miRNAs with altered transcription levels.

Turning to `NCCC(=O)O` [β-alanine, 3-aminopropanoic acid], the “miRNA increased in exosomes of C2C12 cells” value is given as “six RNAs were increased”.
